Row | SMILES | melting point [°C]
1 | Cc1cnc(C(=O)NCCO[N+](=O)[O-])s1 | 110 to 112
2 | C=CCc1ccc(OCC2CCCO2)c2c(=O)cc(C(N)=O)oc12 (stereo not given) | 212 to 214
3 | Cc1nc(-c2ccc(Cl)cc2Cl)sc1C(=O)NCCCCN1CCC(c2ccc3c(c2OCCO)CCCC3)CC1 | 122 to 124
4 | O=[N+]([O-])c1cc(C(c2ccc(O)c([N+](=O)[O-])c2)(C(F)(F)F)C(F)(F)F)ccc1O | 119 to 122
5 | OC1(Cl)C=CC=CC1(O)Cl (stereo not given) | 113 to 114
6 | CC(C)Cn1c(=O)n(C)c(=O)c2c(CCC(=O)O)c(Cc3ccccc3C(F)(F)F)sc21 | 165 to 167
7 | OC(=S)CCCc1nn(-c2ccccc2)c2c1CCCC2 | 105 to 106
8 | COC(=O)c1nn(-c2cccnc2)cc1N | 102 to 108
9 | Oc1ccccc1C=C1c2ccccc2CCc2ccccc21 | 56.9
10 | CCCc1ccc(-n2ncc(C#N)c2N(C(C)=O)C(C)=O)c(Cl)c1 | 110 to 112
11 | Cc1ccc(CCC(=O)NCCCCN2CCN(C(c3ccccc3)c3ccccc3)CC2)cn1 | 126 to 127
12 | CC(C)c1ccc(C(=O)Cl)cc1S(N)(=O)=O | 177
13 | CC(=O)C(C#N)c1ccc(F)cc1 (stereo not given) | 77 to 83
14 | COc1ccc(C2CNCc3cc(N)ccc32)cc1OC (stereo not given) | 157 to 159
15 | Cc1nn(-c2cc(I)c(Cl)cc2F)c(=O)n1C(F)F | 125 to 127
16 | CC(C)(C)c1cc(CP(=O)(O)c2ccccc2)cc(C(C)(C)C)c1O | 185 to 186
17 | CCC1C(=O)Nc2cc(N)c(N)cc21 (stereo not given) | > 300
18 | O=c1[nH]c2cc(N3CCCC3)c(F)cc2c(=O)n1OCc1ccccc1 | > 250
19 | Cc1cc(O)nn1C(=O)Nc1ccccc1 | 232 to 234
20 | CN(C)CCCNc1ccnc2cc3c(cc12)OCO3 | 178 to 181
21 | Cc1c(C)c(CC(C)(C)C#N)c(C)c(C)c1CC(C)(C)C#N | 187 to 190
22 | CC(C#N)NC(=O)NC(C)(C)C (stereo not given) | 161 to 163
23 | COc1ccc(C2(c3ccc(OC)cc3)C(Cl)(Cl)C23CCCCC3)cc1 | 121 to 122
24 | COc1cccc(-c2ccc(C(O)C(F)(F)F)cc2)c1 (stereo not given) | 108
25 | OC[C@@H]1CC[C@H]2CN(c3ncc(F)cn3)CCN2C1 | 148 to 150

Row | SMILES | melting point [°C]
26 | CN(C)c1ccc2nc(-c3ccccc3)oc2n1 | 127 to 129
27 | N#Cc1c[nH]c(-c2ccc(Cl)cc2)c1 | 174 to 175
28 | CC1=C(C(=O)OC2CC(C)(C)N(C)C(C)(C)C2)CC(C(=O)OC2CC(C)(C)N(C)C(C)(C)C2)=C(C)N1 | 232
29 | CC(C)COC(=O)Nc1ccc(Sc2c(O)c3c(Cl)cc(Cl)cc3[nH]c2=O)cc1 | > 300
30 | Clc1ccc2c(c1)C(c1ccccc1)=NCc1c[nH]cc1-2 | 203 to 206
31 | COc1cc2c(cc1Nc1ncc(Cl)c(N[C@H]3[C@@H](C(N)=O)[C@@H]4C=C[C@H]3C4)n1)CCN(CCS(C)(=O)=O)CC2 | 132 to 146
32 | O=c1ccc(-c2ccc(Cl)c(Cl)c2)nn1CN1CCN(Cn2nc(-c3ccc(Cl)c(Cl)c3)ccc2=O)CC1 | 234 to 236
33 | O=C(CCC#Cc1ccccn1)Nc1ccc(F)cc1 | 190
34 | COc1cc2nc(N)nc(-c3c(Br)cc(C)cc3Br)c2cc1OC | 235 to 237
35 | COc1cc(C=C(C=O)C(C=O)=Cc2ccc(OC(C)=O)c(OC)c2)ccc1OC(C)=O | 149 to 151
36 | C#CCOc1ccc(C)cc1S(=O)(=O)NC(=O)Nc1nc(Cl)cc(OC)n1 | 202 to 204
37 | CC1(C)OCc2cc(Cl)cc(C(O)c3cn(C(c4ccccc4)(c4ccccc4)c4ccccc4)cn3)c2O1 (stereo not given) | 120
38 | Cc1ccc(N2CSC(=NCc3ccc(C(F)(F)F)cc3)N(CC(F)(F)F)C2=O)cc1 | 97 to 98.5
39 | COC1(c2ccc(Sc3ccc4c(c3)OCC(=O)N4C)s2)CCOCC1 | 65 to 69
40 | COc1c(C(=O)O)csc1S(=O)(=O)Oc1ccc(-c2c3ccccc3c(Br)c3sc(C)c(C)c23)cc1C1CCCC1 | > 225
41 | O=Cc1ccc(OC2CCN(C(=O)OCC3c4ccccc4-c4ccccc43)CC2)cc1 | 106 to 108
42 | CSc1ccc2ccc3ccccc3c(=O)c2c1 | 66.5 to 67.5
43 | Cc1csc(-c2ccc3nnn(Cc4ccc5ncccc5c4)c3n2)c1 | 153 to 156
44 | Cc1cc(-n2ccnc2)c2cccc(OCc3c(Cl)ccc(S(=O)(=O)N4CCC[C@H]4C(N)=O)c3Cl)c2n1 | 110
45 | O=C1C2C(C(=O)N1c1ccccc1S)C1(Cl)C(Cl)=C(Cl)C2(Cl)C1(Cl)Cl (stereo not given) | 195 to 198
46 | Cc1sc(-c2ccccc2)nc1COc1ccc(COc2ccccc2CC(=O)O)cn1 | 173 to 174
47 | O=C(O)CN1C(=O)C(O)N(Cc2cccc([N+](=O)[O-])c2)C1=O (stereo not given) | 123 to 125
48 | O=C1OC(CCCCN2CCN(c3ccccn3)CC2)CN1c1ccccc1 (stereo not given) | 78 to 81
49 | CN(C)C(=N)Nc1ccc(F)cc1-c1ccccc1 | 160 to 161
50 | C#CCOc1c(OC)cc(/C=C/C(=O)/C=C/c2cc(OC)c(OCC#C)c(OC)c2)cc1OC | 162 to 164

Row | SMILES | melting point [°C]
51 | O=C(O)C(CF)=NOCC=Cc1ccccc1 | 81 to 83
52 | O=C1NCCc2ccc(OCCCCN3CCN(c4cccc5ccc(F)cc45)CC3)nc2N1 | 234
53 | Cc1cc2n(n1)-c1ccc(Cl)cc1C(c1ccccc1)NC2=O (stereo not given) | 258 to 261
54 | CC(C)(SCc1ccccc1)[C@@H]1C[C@H](CSCc2ccccc2)C(=O)N1CC(=O)O (relative stereo) | 117 to 118
55 | Cn1nc(-c2ccccc2C(F)(F)F)nc1-c1ccccc1Cl | 90 to 92
56 | CCCCCC(O)/C=C/n1ccnc1 (stereo not given) | 145 to 148
57 | Cc1ccc(S(=O)(=O)N2CCC[C@H](C(C#N)(c3ccccc3)c3ccccc3)C2)cc1 | 148 to 150
58 | CN(C)Cc1ccc(-c2cccc(-c3ccnc4c(C(=O)c5cccs5)cnn34)c2)cc1 | 192 to 195
59 | COc1ccn2nc(S(=O)(=O)Cl)nc2n1 | 110 to 112
60 | COC(=O)c1cc(N)c(C)c(-n2cccc2)c1 | 112
61 | CCCS(=O)(=O)c1cc(C(=O)NCC2CCCN2CC)c(OC)cc1N (stereo not given) | 105 to 106
62 | O=C(CN1CCNCCNCCNCC1)Nc1c(I)cc(I)c(C(=O)O)c1I | 245 to 246
63 | CCC(COC)(OC)c1cc(F)cc(OCc2ccccc2)c1 (stereo not given) | 61 to 62
64 | CC(C)(C)C(=O)Nc1ccc(C=CC(=O)N2CCc3c([nH]c4ccccc34)C2c2ccc3c(c2)OCO3)cc1 (stereo not given) | 172 to 174
65 | ClCSc1ncc(Cl)cn1 | 78
66 | O=C(c1ccc(OCC2CC2)c2oc3ccccc3c12)[NH+]([O-])c1c(Cl)cncc1Cl (stereo not given) | 263 to 265
67 | OCc1ccc(-c2ccc3nnn(Cc4ccc5ncccc5c4)c3n2)cc1 | 187 to 189
68 | CC(CF)(CF)C(=O)C(Br)Oc1ccc(Cl)cc1 (stereo not given) | 54 to 57
69 | CC(=O)c1ncccc1C(O)=NNC(=O)Nc1cc(F)cc(F)c1 | 79 to 82
70 | CCC(C(=O)N(C)C)n1cc(C(C)C)c(-c2ccccc2)n1 (stereo not given) | 89 to 90
71 | CC(C)(C)OC(=O)NCC(Cl)c1ccco1 (stereo not given) | 75 to 77
72 | CCOC(=O)C=C(NNc1c(C)cc(C)c([N+](=O)[O-])c1C)OC | 82 to 83
73 | CCOC(=O)Cn1c(C)cc2c1CCCC2=O | 101 to 104
74 | CCOC(=O)c1c(N2CCN(C(=O)c3cccs3)CC2)c2cnccc2n(Cc2cccc(F)c2)c1=O | 135
75 | CC1C(=O)NC(c2ccc(NC(=O)CCl)cc2)c2ccccc21 (stereo not given) | 238 to 239

Row | SMILES | melting point [°C]
76 | CCC(CC)n1nnc2c(Nc3ccc(C(C)=O)cc3Br)nc(C)nc21 | 153 to 154
77 | COc1ccccc1N1CCN(CCCNC(=O)c2cccc3c(=O)c(C)c(C4(c5ccccc5)CCCC4)oc23)CC1 | 171 to 172
78 | CNCC(CNC(C)=O)c1cccc2ccc(OC)cc12 (stereo not given) | 126 to 128
79 | CCOC(=O)C(=O)Nc1nccc2snc(NC(=O)C(=O)OCC)c12 | 168
80 | COc1ccc(C(Cl)=C(C=O)c2ccc(OC)c(OC)c2)cc1OC | 183 to 184
81 | CCC(C(=O)N(CC)CC)n1cc(Cl)c(-c2ccccc2)n1 (stereo not given) | 47 to 49
82 | NS(=O)(=O)c1cc2c(cc1Cl)C(=O)N(CCCN1CCOCC1)C2=O | 190 to 191
83 | CCOC(=O)c1cnc2cn[nH]c2c1Sc1ccccc1 | 130 to 131
84 | c1ccc2c(c1)OCCc1c-2n(CCCN2CCCCC2)c2ccccc12 | 65 to 66
85 | CS(=O)(=O)c1ccc(-c2cnn(-c3ccc(F)c(Cl)c3)c(=O)c2-c2ccc(F)cc2)cc1 | 155 to 157
86 | Clc1ccc(Oc2cncc3sc(-c4nnn[nH]4)cc23)cc1 | 250 to 254
87 | CC1CCN(c2ccccc2C(=O)c2ccccc2)CC1 | 82
88 | COc1ccc(CCNC(=O)C(=O)NCc2ccccn2)cc1OC1CCCC1 | 141 to 143
89 | NC(=O)c1cc2cc(OC(F)(F)F)cc(NS(=O)(=O)c3cccs3)c2[nH]1 | > 300
90 | CCOC(=O)c1cn2c3c(cccc3c1=O)C1CCCCC12 (stereo not given) | 71 to 73
91 | CC(C)N(C(=O)CN1C(=O)C(Cc2n[nH]c3ccccc23)C(=O)N(c2ccccc2)c2ccccc21)c1ccc(C(F)(F)F)cc1 (stereo not given) | 145 to 148
92 | COC(=O)[C@@]12CO[C@@H](C(C)(C)C)N1C(=O)[C@@H](Cc1ccccc1)C2 | 130 to 131
93 | CN1OCC(=O)N(c2ccc(C(C)(C)C)cc2)C1=S | 168 to 170
94 | FC(F)(F)CSc1nc2cc(Cl)c(Cl)cc2[nH]1 | 144 to 146
95 | CCCCOc1ccc(Cc2nn(-c3ccccc3Cl)c(=S)o2)cc1 | 69
96 | CCCCC(CC)C(=O)Nc1ccc2ccn(Cc3ccc(C(=O)NS(=O)c4ccccc4)cc3OC)c2c1 (stereo not given) | 122 to 126
97 | CC(C)(C)OC(=O)CN1C(=O)[C@H](N)CCc2ccccc21 | 113 to 115
98 | CN1C(=O)N(c2ccc(Cl)cc2)S[N+]1(C)[O-] (stereo not given) | 83 to 85
99 | Cc1nccc2c3ccc(OCc4ccccc4)cc3n(Cc3ccccc3)c12 | 156
100 | Cc1nn(C)c(C2=NC(C)CN2)c1[N+](=O)[O-] (stereo not given) | 98 to 101
